Like-named read-outs stand apart in the source and are kept apart here.
Legend:
[1] = test system: neonatal mouse fibroblasts; assay: Oxidant stress-induced cell death of fibroblasts (LDH release); type: cell-based
Experimental: FIG. 2 is a plot of the oxidant stress-induced cell death of neonatal mouse fibroblasts exposed to paraquat. Cells (5×10^3 per well) were treated overnight with freshly prepared paraquat or peroxynitrite. Culture medium from wells was assayed for lactate dehydrogenase (LDH) release as a marker of cytotoxicity. […] Values represent means±SEMs of triplicate wells, *P<0.05 difference from untreated cells. The x-axis represents concentration of Paraquat and Peroxynitrite in μM.
(§1) We developed two cell culture systems that can be used to screen drugs that prevent cell death induced by oxidant stress (FIG. 3, Model A) and excitotoxicity (FIG. 4, Model B). In model A, we utilize cultured fibroblasts that are exposed to paraquat that induces significant death at 10 μM (see FIG. 3). In model B we utilize the NSC-34 motor neuron cell line that can be induced to degenerate via the glutamate excitotixic pathway using the specific agonist fluorowillardine or FW (see FIG. 4).

[2] = In vitro antioxidant assay: oxidation of linoleic acid to conjugated diene hydroperoxide, free radical initiator AAPH, absorbance at 234 nm; type: biochemical
From the text: Lipid oxidation can usually be prevented by the addition free radical scavengers (FRS), more commonly known as antioxidants. Their role is to turn reactive and harmful molecules such as hydroxy, nitroxy and superoxide radicals into innocuous molecules that can be passed or converted by biological processes. One of the main pathways that lead to apoptosis in cells is oxidative stress. This event is a product of the action of these harmful radicals on the cell walls and membranes, leading to their breakdown. In terms of the antioxidant evaluation (Scheme 1), […] was utilised as a free radical initiator […], and the efficiency was calculated based on the formation of a conjugated diene hydroperoxide generated through the oxidation of linoleic acid in the presence and absence of a free radical scavenger. The conjugated diene hydroperoxide mimics the products of cellular oxidative stress imposed on the cell wall. The antioxidant can act at any stage of the reaction to stop or slow down the formation of the conjugated diene by reacting with the appropriate radicals (Scheme 1).
A convenient test to determine the efficiency of antioxidants in aqueous systems was setup using 2,2′-azobis(2-amidinopropane).2HCl ([…]) as a free radical initiator (Scheme 1). The production of conjugated diene hydroperoxide (LOOH) generated through the oxidation of linoleic acid in an aqueous system at 37° C. is monitored at 234 nm for 15 minutes using a Cary 100 UV-Vis spectrophotometer.
The efficiency is determined according to a standard, that is the generation of free radicals in the absence of an antioxidant. Efficiency is then calculated using the following equation: Efficiency (%)=1−[K2/K1]×100 Where: • K1=rate of oxidation of standard (no antioxidant)=[difference in absorbance]/[time (sec)] • K2=rate of oxidation with antioxidant=[difference in absorbance]/[time (sec)]
Prior to testing the efficiency of the compounds of the present invention, a number of well known antioxidants including vitamin E and ascorbic acid were tested. Each of the tests for vitamin E and ascorbic acid gave similar results to those presented in the literature. A number of other variables were tested including the amounts of antioxidant, substrate (linoleic acid) and initiator (AAPH). The optimal volumes are shown below: • 2.78 ml 0.05M phosphate buffer pH 7.4 • 30 ul of linoleic acid dispersion stock • 10 ul of 0.01M antioxidant stock
150 ul of 40 mM […] stock
When testing the efficiency of compounds of the present invention in the presence and absence of Ca^2+, HEPES buffered saline was used instead of the standard phosphate buffer and CaCl2 was used as a source of calcium ions.

[3] = test system: NSC-34D motor neuron cell line; assay: Excitotoxic cell death of motor neuron cell line (MTT reduction); type: cell-based; settings: exposed for 72 hours
Experimental: FIG. 3 is a plot showing the effect of (S)-5-fluorowillardiine (“(S)-5-FW”) on survival (MTT reduction) of NSC-34D motor neuron cell line. These cells were cultured at 1×10^4 cells/well for 48 hours in DMEM/F-12 with 1% (v/v) FCS and then exposed to various concentrations of (S)-5-FW for 72 hours. MTT solution (0.5 mg/ml) was added to cultures for 2 hours, cells were solubilised and MTT reduction quantified as a percentage of […]. Statistically significant differences from control (zero (S)-5-FW) were defined using one-way ANOVA (*P<0.05, ***P<0.001).
as §1

[4] = 0.05M phosphate buffer pH 7.4, 37° C., 15 minutes, antioxidant stock 0.01 M, final concentration 33.3 μM
[5] = HBS with calcium (67%), CaCl2 as calcium source, solvent methanol or DMSO (33%)
[6] = HBS without calcium (67%), solvent methanol or DMSO (33%)

Row | Compound | Efficiency [2, 4] [%] | Efficiency [2, 5] [%] | Efficiency [2, 6] [%] | further results
1 | C[n+]1ccc(-c2cc[n+](C)cc2)cc1 [paraquat] |  |  |  | Cell death (LDH release as marker of cytotoxicity) ([1]; 5×10^3 cells per well, treated overnight, high doses): induced significant cell death; Concentration that induces significant death of cultured fibroblasts ([1]; model A, oxidant stress): 10 µM
2 | O=C1O[C@H]([C@@H](O)CO)C(O)=C1O [Ascorbic Acid] | 74 |  |  | 
3 | N[C@@H](Cn1cc(F)c(=O)[nH]c1=O)C(=O)O [(S)-5-FW, (S)-5-fluorowillardiine] |  |  |  | Concentration of maximal cell death effect [3]: 1000 µM; Effect on survival (MTT reduction) ([3]; various concentrations): significant cell death in concentration dependent manner
4 | O=C(O)CN(CC(=O)O)c1ccccc1OCCOc1ccccc1N(CC(=O)O)CC(=O)O [compound (4), bis(o-aminophenoxy)ethane-N,N,N′,N′-tetraacetic acid] | 83 | 93 | 93 | 
5 | Bis[2-(bis-ethoxycarbonylmethyl)aminophenoxy]ethane [compound (3)] | 20 |  |  | 
6 | O=NOO [peroxynitrite] |  |  |  | Cell death (LDH release as marker of cytotoxicity) [1]: not peroxynitrite induced significant cell death
7 | CCOC(=O)CN(CC(=O)OCC)c1ccccc1OC [(5), N,N-bis(ethoxycarbonylmethyl)o-anisidine] | 47 |  |  | 
8 | COc1ccccc1N(CC(=O)O)CC(=O)O [(6), N,N-bis(acetic acid)o-anisidine] | 43 | 35 | 46 | 
9 | Vitamin E | 93 | 94 | 90 | 

Source: US20050288359A1, “Agents and methods for the treatment of disorders associated with oxidative stress” (Monash University, priority 2002, published 2005)
